# According to ChEMBL document CHEMBL4627246, “Pyroglutamide-Based P2X7 Receptor Antagonists Targeting Inflammatory Bowel Disease” (J Med Chem, 2020):
# Tested on: RPMI-8226
# Experiment: Cytotoxicity against human RPMI8226 cells assessed as effect on cell growth at 10 uM incubated for 48 hrs by sulforhodamine B assay
# Format: cell-based
# Conditions: rpmi-8226, 48 h
row,Compound,Activity
1,CN1C(=O)CC[C@H]1C(=O)NCc1cccc(C(F)(F)F)c1Cl [GSK1482160],Non-Toxic
2,CN(Cc1ccccc1)C(=O)[C@@H]1CCC(=O)N1Cc1ccc(Cl)cc1Cl,Non-Toxic
3,COc1ccccc1CN1C(=O)[C@@H]2C/C(=C\N(C)C)C(=O)N2C1N(C)C (stereo not given in full),Non-Toxic
4,O=C(NCc1ccccc1Cl)[C@@H]1CCC(=O)N1Cc1ccc(Cl)cc1,Non-Toxic

# Tested on: EKVX
# Experiment: Cytotoxicity against human EKVX cells assessed as effect on cell growth at 10 uM incubated for 48 hrs by sulforhodamine B assay
# Format: cell-based
# Conditions: not given
row,Compound,Activity
1,CN1C(=O)CC[C@H]1C(=O)NCc1cccc(C(F)(F)F)c1Cl [GSK1482160],Non-Toxic
2,CN(Cc1ccccc1)C(=O)[C@@H]1CCC(=O)N1Cc1ccc(Cl)cc1Cl,Non-Toxic
3,COc1ccccc1CN1C(=O)[C@@H]2C/C(=C\N(C)C)C(=O)N2C1N(C)C (stereo not given in full),Non-Toxic
4,O=C(NCc1ccccc1Cl)[C@@H]1CCC(=O)N1Cc1ccc(Cl)cc1,Non-Toxic

# Tested on: SW-620
# Experiment: Cytotoxicity against human SW620 cells assessed as effect on cell growth at 10 uM incubated for 48 hrs by sulforhodamine B assay
# Format: cell-based
# Conditions: sw-620, 48 h
row,Compound,Activity
1,CN1C(=O)CC[C@H]1C(=O)NCc1cccc(C(F)(F)F)c1Cl [GSK1482160],Non-Toxic
2,CN(Cc1ccccc1)C(=O)[C@@H]1CCC(=O)N1Cc1ccc(Cl)cc1Cl,Non-Toxic
3,COc1ccccc1CN1C(=O)[C@@H]2C/C(=C\N(C)C)C(=O)N2C1N(C)C (stereo not given in full),Non-Toxic
4,O=C(NCc1ccccc1Cl)[C@@H]1CCC(=O)N1Cc1ccc(Cl)cc1,Non-Toxic

# Tested on: A549
# Experiment: Cytotoxicity against human A549/ATCC cells assessed as effect on cell growth at 10 uM incubated for 48 hrs by sulforhodamine B assay
# Format: cell-based
# Conditions: a549, 48 h
row,Compound,Activity
1,CN1C(=O)CC[C@H]1C(=O)NCc1cccc(C(F)(F)F)c1Cl [GSK1482160],Non-Toxic
2,CN(Cc1ccccc1)C(=O)[C@@H]1CCC(=O)N1Cc1ccc(Cl)cc1Cl,Non-Toxic
3,COc1ccccc1CN1C(=O)[C@@H]2C/C(=C\N(C)C)C(=O)N2C1N(C)C (stereo not given in full),Non-Toxic
4,O=C(NCc1ccccc1Cl)[C@@H]1CCC(=O)N1Cc1ccc(Cl)cc1,Non-Toxic

# Tested on: HL-60(TB)
# Experiment: Cytotoxicity against human HL-60(TB) cells assessed as effect on cell growth at 10 uM incubated for 48 hrs by sulforhodamine B assay
# Format: cell-based
# Conditions: not given
row,Compound,Activity
1,CN1C(=O)CC[C@H]1C(=O)NCc1cccc(C(F)(F)F)c1Cl [GSK1482160],Non-Toxic
2,CN(Cc1ccccc1)C(=O)[C@@H]1CCC(=O)N1Cc1ccc(Cl)cc1Cl,Non-Toxic
3,COc1ccccc1CN1C(=O)[C@@H]2C/C(=C\N(C)C)C(=O)N2C1N(C)C (stereo not given in full),Non-Toxic
4,O=C(NCc1ccccc1Cl)[C@@H]1CCC(=O)N1Cc1ccc(Cl)cc1,Non-Toxic

# Tested on: MOLT-4
# Experiment: Cytotoxicity against human MOLT4 cells assessed as effect on cell growth at 10 uM incubated for 48 hrs by sulforhodamine B assay
# Format: cell-based
# Conditions: molt-4, 48 h
row,Compound,Activity
1,CN1C(=O)CC[C@H]1C(=O)NCc1cccc(C(F)(F)F)c1Cl [GSK1482160],Non-Toxic
2,CN(Cc1ccccc1)C(=O)[C@@H]1CCC(=O)N1Cc1ccc(Cl)cc1Cl,Non-Toxic
3,COc1ccccc1CN1C(=O)[C@@H]2C/C(=C\N(C)C)C(=O)N2C1N(C)C (stereo not given in full),Non-Toxic
4,O=C(NCc1ccccc1Cl)[C@@H]1CCC(=O)N1Cc1ccc(Cl)cc1,Non-Toxic

# Tested on: SF-295
# Experiment: Cytotoxicity against human SF295 cells assessed as effect on cell growth at 10 uM incubated for 48 hrs by sulforhodamine B assay
# Format: cell-based
# Conditions: sf-295, 48 h
row,Compound,Activity
1,CN1C(=O)CC[C@H]1C(=O)NCc1cccc(C(F)(F)F)c1Cl [GSK1482160],Non-Toxic
2,CN(Cc1ccccc1)C(=O)[C@@H]1CCC(=O)N1Cc1ccc(Cl)cc1Cl,Non-Toxic
3,COc1ccccc1CN1C(=O)[C@@H]2C/C(=C\N(C)C)C(=O)N2C1N(C)C (stereo not given in full),Non-Toxic
4,O=C(NCc1ccccc1Cl)[C@@H]1CCC(=O)N1Cc1ccc(Cl)cc1,Non-Toxic

# Tested on: ACHN
# Experiment: Cytotoxicity against human ACHN cells assessed as effect on cell growth at 10 uM incubated for 48 hrs by sulforhodamine B assay
# Format: cell-based
# Conditions: not given
row,Compound,Activity
1,CN1C(=O)CC[C@H]1C(=O)NCc1cccc(C(F)(F)F)c1Cl [GSK1482160],Non-Toxic
2,CN(Cc1ccccc1)C(=O)[C@@H]1CCC(=O)N1Cc1ccc(Cl)cc1Cl,Non-Toxic
3,COc1ccccc1CN1C(=O)[C@@H]2C/C(=C\N(C)C)C(=O)N2C1N(C)C (stereo not given in full),Non-Toxic
4,O=C(NCc1ccccc1Cl)[C@@H]1CCC(=O)N1Cc1ccc(Cl)cc1,Non-Toxic

# Tested on: M14
# Experiment: Cytotoxicity against human M14 cells assessed as effect on cell growth at 10 uM incubated for 48 hrs by sulforhodamine B assay
# Format: cell-based
# Conditions: m14, 48 h
row,Compound,Activity
1,CN1C(=O)CC[C@H]1C(=O)NCc1cccc(C(F)(F)F)c1Cl [GSK1482160],Non-Toxic
2,CN(Cc1ccccc1)C(=O)[C@@H]1CCC(=O)N1Cc1ccc(Cl)cc1Cl,Non-Toxic
3,COc1ccccc1CN1C(=O)[C@@H]2C/C(=C\N(C)C)C(=O)N2C1N(C)C (stereo not given in full),Non-Toxic
4,O=C(NCc1ccccc1Cl)[C@@H]1CCC(=O)N1Cc1ccc(Cl)cc1,Non-Toxic

# Tested on: A498
# Experiment: Cytotoxicity against human A498 cells assessed as effect on cell growth at 10 uM incubated for 48 hrs by sulforhodamine B assay
# Format: cell-based
# Conditions: a498, 48 h
row,Compound,Activity
1,CN1C(=O)CC[C@H]1C(=O)NCc1cccc(C(F)(F)F)c1Cl [GSK1482160],Non-Toxic
2,CN(Cc1ccccc1)C(=O)[C@@H]1CCC(=O)N1Cc1ccc(Cl)cc1Cl,Non-Toxic
3,COc1ccccc1CN1C(=O)[C@@H]2C/C(=C\N(C)C)C(=O)N2C1N(C)C (stereo not given in full),Non-Toxic
4,O=C(NCc1ccccc1Cl)[C@@H]1CCC(=O)N1Cc1ccc(Cl)cc1,Non-Toxic

# Tested on: SR
# Experiment: Cytotoxicity against human SR cells assessed as effect on cell growth at 10 uM incubated for 48 hrs by sulforhodamine B assay
# Format: cell-based
# Conditions: not given
row,Compound,Activity
1,CN1C(=O)CC[C@H]1C(=O)NCc1cccc(C(F)(F)F)c1Cl [GSK1482160],Non-Toxic
2,CN(Cc1ccccc1)C(=O)[C@@H]1CCC(=O)N1Cc1ccc(Cl)cc1Cl,Non-Toxic
3,COc1ccccc1CN1C(=O)[C@@H]2C/C(=C\N(C)C)C(=O)N2C1N(C)C (stereo not given in full),Non-Toxic
4,O=C(NCc1ccccc1Cl)[C@@H]1CCC(=O)N1Cc1ccc(Cl)cc1,Non-Toxic

# Tested on: HCT-15
# Experiment: Cytotoxicity against human HCT15 cells assessed as effect on cell growth at 10 uM incubated for 48 hrs by sulforhodamine B assay
# Format: cell-based
# Conditions: hct-15, 48 h
row,Compound,Activity
1,CN1C(=O)CC[C@H]1C(=O)NCc1cccc(C(F)(F)F)c1Cl [GSK1482160],Non-Toxic
2,CN(Cc1ccccc1)C(=O)[C@@H]1CCC(=O)N1Cc1ccc(Cl)cc1Cl,Non-Toxic
3,COc1ccccc1CN1C(=O)[C@@H]2C/C(=C\N(C)C)C(=O)N2C1N(C)C (stereo not given in full),Non-Toxic
4,O=C(NCc1ccccc1Cl)[C@@H]1CCC(=O)N1Cc1ccc(Cl)cc1,Non-Toxic

# Tested on: NCI-H460
# Experiment: Cytotoxicity against human NCI-H460 cells assessed as effect on cell growth at 10 uM incubated for 48 hrs by sulforhodamine B assay
# Format: cell-based
# Conditions: nci-h460, 48 h
row,Compound,Activity
1,CN1C(=O)CC[C@H]1C(=O)NCc1cccc(C(F)(F)F)c1Cl [GSK1482160],Non-Toxic
2,CN(Cc1ccccc1)C(=O)[C@@H]1CCC(=O)N1Cc1ccc(Cl)cc1Cl,Non-Toxic
3,COc1ccccc1CN1C(=O)[C@@H]2C/C(=C\N(C)C)C(=O)N2C1N(C)C (stereo not given in full),Non-Toxic
4,O=C(NCc1ccccc1Cl)[C@@H]1CCC(=O)N1Cc1ccc(Cl)cc1,Non-Toxic

# Tested on: UO-31
# Experiment: Cytotoxicity against human UO31 cells assessed as effect on cell growth at 10 uM incubated for 48 hrs by sulforhodamine B assay
# Format: cell-based
# Conditions: uo-31, 48 h
row,Compound,Activity
1,CN1C(=O)CC[C@H]1C(=O)NCc1cccc(C(F)(F)F)c1Cl [GSK1482160],Non-Toxic
2,CN(Cc1ccccc1)C(=O)[C@@H]1CCC(=O)N1Cc1ccc(Cl)cc1Cl,Non-Toxic
3,COc1ccccc1CN1C(=O)[C@@H]2C/C(=C\N(C)C)C(=O)N2C1N(C)C (stereo not given in full),Non-Toxic
4,O=C(NCc1ccccc1Cl)[C@@H]1CCC(=O)N1Cc1ccc(Cl)cc1,Non-Toxic

# Tested on: DU-145
# Experiment: Cytotoxicity against human DU145 cells assessed as effect on cell growth at 10 uM incubated for 48 hrs by sulforhodamine B assay
# Format: cell-based
# Conditions: du-145, 48 h
row,Compound,Activity
1,CN1C(=O)CC[C@H]1C(=O)NCc1cccc(C(F)(F)F)c1Cl [GSK1482160],Non-Toxic
2,CN(Cc1ccccc1)C(=O)[C@@H]1CCC(=O)N1Cc1ccc(Cl)cc1Cl,Non-Toxic
3,COc1ccccc1CN1C(=O)[C@@H]2C/C(=C\N(C)C)C(=O)N2C1N(C)C (stereo not given in full),Non-Toxic
4,O=C(NCc1ccccc1Cl)[C@@H]1CCC(=O)N1Cc1ccc(Cl)cc1,Non-Toxic

# Tested on: SK-OV-3
# Experiment: Cytotoxicity against human SKOV3 cells assessed as effect on cell growth at 10 uM incubated for 48 hrs by sulforhodamine B assay
# Format: cell-based
# Conditions: sk-ov-3, 48 h
row,Compound,Activity
1,CN1C(=O)CC[C@H]1C(=O)NCc1cccc(C(F)(F)F)c1Cl [GSK1482160],Non-Toxic
2,CN(Cc1ccccc1)C(=O)[C@@H]1CCC(=O)N1Cc1ccc(Cl)cc1Cl,Non-Toxic
3,COc1ccccc1CN1C(=O)[C@@H]2C/C(=C\N(C)C)C(=O)N2C1N(C)C (stereo not given in full),Non-Toxic
4,O=C(NCc1ccccc1Cl)[C@@H]1CCC(=O)N1Cc1ccc(Cl)cc1,Non-Toxic

# Tested on: OVCAR-5
# Experiment: Cytotoxicity against human OVCAR5 cells assessed as effect on cell growth at 10 uM incubated for 48 hrs by sulforhodamine B assay
# Format: cell-based
# Conditions: ovcar-5, 48 h
row,Compound,Activity
1,CN1C(=O)CC[C@H]1C(=O)NCc1cccc(C(F)(F)F)c1Cl [GSK1482160],Non-Toxic
2,CN(Cc1ccccc1)C(=O)[C@@H]1CCC(=O)N1Cc1ccc(Cl)cc1Cl,Non-Toxic
3,COc1ccccc1CN1C(=O)[C@@H]2C/C(=C\N(C)C)C(=O)N2C1N(C)C (stereo not given in full),Non-Toxic
4,O=C(NCc1ccccc1Cl)[C@@H]1CCC(=O)N1Cc1ccc(Cl)cc1,Non-Toxic

# Tested on: 786-0
# Experiment: Cytotoxicity against human 786-0 cells assessed as effect on cell growth at 10 uM incubated for 48 hrs by sulforhodamine B assay
# Format: cell-based
# Conditions: 786-0, 48 h
row,Compound,Activity
1,CN1C(=O)CC[C@H]1C(=O)NCc1cccc(C(F)(F)F)c1Cl [GSK1482160],Non-Toxic
2,CN(Cc1ccccc1)C(=O)[C@@H]1CCC(=O)N1Cc1ccc(Cl)cc1Cl,Non-Toxic
3,COc1ccccc1CN1C(=O)[C@@H]2C/C(=C\N(C)C)C(=O)N2C1N(C)C (stereo not given in full),Non-Toxic
4,O=C(NCc1ccccc1Cl)[C@@H]1CCC(=O)N1Cc1ccc(Cl)cc1,Non-Toxic

# Tested on: KM12
# Experiment: Cytotoxicity against human KM12 cells assessed as effect on cell growth at 10 uM incubated for 48 hrs by sulforhodamine B assay
# Format: cell-based
# Conditions: km12, 48 h
row,Compound,Activity
1,CN1C(=O)CC[C@H]1C(=O)NCc1cccc(C(F)(F)F)c1Cl [GSK1482160],Non-Toxic
2,CN(Cc1ccccc1)C(=O)[C@@H]1CCC(=O)N1Cc1ccc(Cl)cc1Cl,Non-Toxic
3,COc1ccccc1CN1C(=O)[C@@H]2C/C(=C\N(C)C)C(=O)N2C1N(C)C (stereo not given in full),Non-Toxic
4,O=C(NCc1ccccc1Cl)[C@@H]1CCC(=O)N1Cc1ccc(Cl)cc1,Non-Toxic

# Tested on: SF-539
# Experiment: Cytotoxicity against human SF539 cells assessed as effect on cell growth at 10 uM incubated for 48 hrs by sulforhodamine B assay
# Format: cell-based
# Conditions: sf-539, 48 h
row,Compound,Activity
1,CN1C(=O)CC[C@H]1C(=O)NCc1cccc(C(F)(F)F)c1Cl [GSK1482160],Non-Toxic
2,CN(Cc1ccccc1)C(=O)[C@@H]1CCC(=O)N1Cc1ccc(Cl)cc1Cl,Non-Toxic
3,COc1ccccc1CN1C(=O)[C@@H]2C/C(=C\N(C)C)C(=O)N2C1N(C)C (stereo not given in full),Non-Toxic
4,O=C(NCc1ccccc1Cl)[C@@H]1CCC(=O)N1Cc1ccc(Cl)cc1,Non-Toxic
